This is an account of results in patent US20140066369A1, “Modulators Of The GPR119 Receptor And The Treatment Of Disorders Related Thereto” (ARENA PHARMACEUTICALS, INC., priority 2011, published 2014).

For orientation: EC50 means the concentration at which the effect is half-maximal.

In assay [1] the target is T1, hGPR119 (Homo sapiens, UniProt Q8TDV5).
T1 construct: expressed in transfected cells
T1 sequence (Q8TDV5 2-335): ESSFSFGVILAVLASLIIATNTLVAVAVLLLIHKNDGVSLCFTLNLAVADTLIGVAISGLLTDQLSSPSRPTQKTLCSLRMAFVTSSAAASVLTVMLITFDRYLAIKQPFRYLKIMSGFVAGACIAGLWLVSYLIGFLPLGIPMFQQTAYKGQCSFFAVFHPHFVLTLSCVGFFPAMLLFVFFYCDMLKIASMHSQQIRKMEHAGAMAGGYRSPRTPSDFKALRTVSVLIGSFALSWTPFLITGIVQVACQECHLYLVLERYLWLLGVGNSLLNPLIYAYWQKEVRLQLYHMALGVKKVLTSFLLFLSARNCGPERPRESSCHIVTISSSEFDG
Put plainly: HTRF assay for direct cAMP measurement in CHO-K1 cells stably expressing the GPR119 receptor. Type of assay: cell-based. On the procedure:
GPR119 agonists were evaluated in an HTRF® cAMP detection assay (Cisbio, cAMP Dynamic 2 Assay Kit; #62AM4PEJ) according to the manufacturer's instructions using CHO-K1 cells stably expressing the GPR119 receptor. CHO-K1 cells were transduced with a lentiviral vector encoding the nucleotide sequence of GPR119 (NCBI mRNA and protein reference sequences: NM_178471.2 & NP_848566). The N-terminus of the GPR119 nucleotide sequence was modified to replace the first, methionine-coding, codon with a nucleotide sequence coding for a standard, nine amino acid, hemagglutinin tag. Following transduction, cells expressing the GPR119 receptor were isolated and a single clone was isolated following standard dilution-cloning procedures. On the day of the assay, cultured CHO-GPR119 cells were harvested, suspended in assay buffer and plated into 384-well assay plates (PerkinElmer® Proxiplate® #6008280) at a density of 2,000 cells per well. A cAMP standard curve was added to each plate. Test compounds were dissolved in DMSO, serially diluted in DMSO and then diluted in assay buffer before addition to the cells. Test compounds were evaluated in triplicate, using 10-point, 5-fold serial dilutions starting at 10 μM. The final DMSO concentration in the assay was 0.5%. Compounds and cells were incubated for 1 h at room temperature and then detection reagents were added to each well (cAMP-D2 in cell lysis buffer, followed by europium cryptate-labeled anti-cAMP antibody). Plates were then incubated at room temperature for 1 h prior to reading. Time-resolved fluorescence measurements were collected on PerkinElmer Envision™ or BMG Pherastar™ microplate readers. The compound N-(2-fluoro-4-(methylsulfonyl) phenyl)-6-(4-(3-isopropyl-1,2,4-oxadiazol-5-yl)piperidin-1-yl)-5-nitropyrimidin-4-amine was used as a positive control in each runset while assay buffer containing 0.5% DMSO was used as the negative control. The HTRF® assay was used to determine EC50 values for GPR119 agonists.
A general note: In TR-FRET formats the signal depends on donor and acceptor labels being close together.

Assay [2] concerns male 129SVE mice. Put plainly: Oral glucose tolerance test (oGTT), glucose homeostasis in male 129SVE mice. Type of assay: in vivo. Here is the method: Male 129SVE mice (approximately 8 weeks old) were fasted for 18 h and randomly grouped (n=6) to receive a GPR119 agonist (Compound 17) at 3 or 10 mg/kg (mg/kg body weight). The compound was delivered orally via a gavage needle (p.o., 4 mL/kg) 30 minutes prior to glucose bolus (3 g/kg) (time=−30 min in FIG. 1), with a separate group receiving vehicle (20% hydroxypropyl-beta-cyclodextrin (HPCD)) as control. At time 0 min the glucose bolus was administered. Levels of blood glucose were assessed using a glucometer (One-Touch Ultra™, LifeScan) at time −30 min (prior to compound administration), at 0 min (at time when glucose bolus was given), and at 20, 40, 60, 120 min post glucose bolus. Plasma glucose levels (Table B) and the glucose excursion curve (FIG. 1) are shown. The reduction in the glucose excursion area under the curve (AUC) from −30 to 120 min in GPR119 agonist-treated animals relative to vehicle is shown in FIG. 2.

Assay [3] deals with male 129SVE mice. The assay is described as follows: GIP release in male 129SVE mice (plasma total GIP, ELISA). Type of assay: in vivo. The settings on record: 3 or 30 mg/kg p.o.; blood sample after 45 min. On the procedure: Male 129SVE mice (approximately 8 weeks old) were fasted for 18 h and randomly grouped (n=6) to receive a GPR119 agonist (Compound 17) at 3 or 30 mg/kg. Compound 17 was delivered orally via a gavage needle (p.o., 4 mL/kg), and after 45 min a blood sample was collected to determine plasma total GIP levels. A separate control group received vehicle (PET (80% PEG: 10% Ethanol: 10% Tween80™)). Plasma GIP levels were determined using a GIP (total) ELISA kit from Millipore.

Molecules are shown by their SMILES.

Regarding `Cc1nc(S(C)(=O)=O)ccc1OC[C@H]1CC[C@H](N2CCN(c3ncc(C(F)(F)F)cn3)C[C@@H]2C)CC1` [Compound 26, 2-((S)-3-Methyl-4-((1r,4S)-4-((2-methyl-6-(methylsulfonyl)pyridin-3-yloxy)methyl)cyclohexyl)piperazin-1-yl)-5-(trifluoromethyl)pyrimidine], a half-maximal response in assay [1] (EC50) required 600 nM.

As to `C[C@@H]1CN(c2ncc(Cl)cn2)CCN1[C@H]1CC[C@H](COc2ccc(S(C)(=O)=O)cc2F)CC1` [Compound 31, 5-Chloro-2-((R)-4-((1r,4R)-4-((2-fluoro-4-(methylsulfonyl)phenoxy)methyl)cyclohexyl)-3-methylpiperazin-1-yl)pyrimidine], in assay [1], the response was half-maximal at 70.1 nM (EC50).

For `C[C@@H](OC(=O)N1CCN([C@H]2CC[C@H](COc3ccc(-n4cnnn4)cc3F)CC2)CC1)C(F)(F)F` [Compound 44, (R)-1,1,1-Trifluoropropan-2-yl 4-((1r,4R)-4-((2-fluoro-4-(1H-tetrazol-1-yl)phenoxy)methyl)cyclohexyl) piperazine-1-carboxylate], a half-maximal effect in assay [1] (EC50) was put at 22.2 nM. Compared with the last compound, the EC50 is about 3.2-fold lower.

`CN(C)C(=O)c1ccc(OC[C@H]2CC[C@H](N3CCN(C(=O)OC(C)(C)C)CC3)CC2)c(F)c1` [Compound 38, tert-Butyl 4-((1r,4r)-4-((4-(dimethylcarbamoyl)-2-fluorophenoxy)methyl)cyclohexyl)piperazine-1-carboxylate] gave an EC50 in assay [1] of 219 nM.

Turning to `CCc1cnc(N2CCN([C@H]3CC[C@H](COc4ccc(S(C)(=O)=O)cc4)CC3)CC2)nc1` [Compound 5, 5-Ethyl-2-(4-((1r,4r)-4-((4-(methylsulfonyl)phenoxy)methyl)cyclohexyl)piperazin-1-yl)pyrimidine], the EC50 in assay [1] stood at 106 nM.

Regarding `N#Cc1ccc(OC[C@H]2CC[C@H](N3CCN(c4ncc(C(F)(F)F)cn4)CC3)CC2)cc1` [Compound 23, 4-(((1r,4r)-4-(4-(5-(Trifluoromethyl)pyrimidin-2-yl)piperazin-1-yl)cyclohexyl)methoxy) benzonitrile], in assay [1], the half-maximal effective concentration (EC50) was 1380 nM.

`CS(=O)(=O)c1ccc(OC[C@H]2CC[C@H](N3CCN(c4nc(C(F)(F)F)no4)CC3)CC2)c(F)c1` [Compound 64, 5-(4-((1r,4r)-4-((2-Fluoro-4-(methylsulfonyl)phenoxy)methyl)cyclohexyl)piperazin-1-yl)-3-(trifluoromethyl)-1,2,4-oxadiazole] returned an EC50 in assay [1] of 13.7 nM.

Regarding `CS(=O)(=O)c1ccc(OC[C@H]2CC[C@H](N3CCN(c4ncc(Cl)cn4)CC3)CC2)c(F)c1` [Compound 17, 5-Chloro-2-(4-((1r,4r)-4-((2-fluoro-4-(methylsulfonyl)phenoxy)methyl)cyclohexyl)piperazin-1-yl)pyrimidine], the “Plasma Glucose, Mean” value in assay [2] (3 mg/kg p.o., 20 min post glucose bolus) was found to be 263.5 mg/dL; in assay [2] (3 mg/kg p.o., 40 min post glucose bolus), 304.8333 mg/dL; in assay [2] (3 mg/kg p.o., 60 min post glucose bolus) it was 247.6667 mg/dL; in assay [2] (3 mg/kg p.o., 120 min post glucose bolus), 166.3333 mg/dL; in assay [2] (3 mg/kg p.o., time relative to glucose bolus 0 min), 88.0 mg/dL; in assay [2] (3 mg/kg p.o., time relative to glucose bolus −30 min (prior to compound administration), oGTT, glucose 3 g/kg), 67.33 mg/dL. The “Plasma Glucose, Mean” value in assay [2] (10 mg/kg p.o., 20 min post glucose bolus) amounted to 203.8333 mg/dL; in assay [2] (10 mg/kg p.o., 40 min post glucose bolus), 234.8333 mg/dL; in assay [2] (10 mg/kg p.o., 60 min post glucose bolus) it was 186.1667 mg/dL; in assay [2] (10 mg/kg p.o., 120 min post glucose bolus), 167.3333 mg/dL; in assay [2] (10 mg/kg p.o., time relative to glucose bolus 0 min), 96.33 mg/dL; in assay [2] (10 mg/kg p.o., time relative to glucose bolus −30 min (prior to compound administration), oGTT, glucose 3 g/kg), 68.5 mg/dL. Moreover, in assay [2] (3 or 10 mg/kg p.o., 30 minutes prior to glucose bolus, relative to vehicle), the “Effect on blood glucose after challenge with glucose” value is listed as “lowered blood glucose”. In addition, in assay [3], the “Effect on GIP release (plasma total GIP)” value is “stimulated the release of GIP”. Also, in assay [1], the EC50 worked out at 51.8 nM.
